# Experiments:
# CFTR = CFTR (Homo sapiens, UniProt P13569, DEL508-508); settings: cited from earlier work
# NPC1 [1] = settings: cited from earlier work
# NPC1 [2] = experiment: cholesterol storage in LE/LY by filipin staining, high content image analysis; assay type: cell-based, human
# Source text: (§1) NPC1 is composed of multiple domains that harbor the different variants contributing to disease. Given the heterozygous allelic composition of most NPC1 primary fibroblasts that compromise interpretation of the impact of a specific allele on disease progression, we silenced NPC1 expression with shRNA to generate stable null cell lines. These null cell lines were transiently transfected with a sparse collection of plasmids that each harbor one of 48 distinct NPC1 disease-associated variants in NPC1 distributed among the various NPC1 domains. […] We binned this sparse collection of variants into 4 functional classes (Cass I-IV). Class I variants lack polypeptide expression in response to non-sense and/or splicing (truncation) mutations (null), Class II missense variants are largely ER retained (defined as <0.2 TrIdx), Class III missense variants show an intermediate level of trafficking (defined as 0.2 to 0.5 TrIdx) and Class IV missense variants have a level of trafficking >0.5 TrIdx indicating significant export from the ER. […] The impact of cholesterol (ChoI) storage in the LE/LY for each of these variants was measured using automated high content screening image analysis based on filipin staining.
# (§2) Each of the 48 NPC1 variants was examined for the impact of SAHA on both TrIdx and ChoI in the LE/LY. […] The effects of HDACi were NPC1-dependent as restoration of ChoI homeostasis by SAHA was not observed in fibroblasts lacking NPC1 and in null cell-lines lacking NPC1.
# NPC1 [3] = experiment: NPC1 variant trafficking index (TrIdx, endo H resistance) in NPC1 null cell lines; assay type: cell-based, human
# Source text: as §1, §2
# Chain of CFTR (P13569 with tags, fused parts or gaps DEL508-508): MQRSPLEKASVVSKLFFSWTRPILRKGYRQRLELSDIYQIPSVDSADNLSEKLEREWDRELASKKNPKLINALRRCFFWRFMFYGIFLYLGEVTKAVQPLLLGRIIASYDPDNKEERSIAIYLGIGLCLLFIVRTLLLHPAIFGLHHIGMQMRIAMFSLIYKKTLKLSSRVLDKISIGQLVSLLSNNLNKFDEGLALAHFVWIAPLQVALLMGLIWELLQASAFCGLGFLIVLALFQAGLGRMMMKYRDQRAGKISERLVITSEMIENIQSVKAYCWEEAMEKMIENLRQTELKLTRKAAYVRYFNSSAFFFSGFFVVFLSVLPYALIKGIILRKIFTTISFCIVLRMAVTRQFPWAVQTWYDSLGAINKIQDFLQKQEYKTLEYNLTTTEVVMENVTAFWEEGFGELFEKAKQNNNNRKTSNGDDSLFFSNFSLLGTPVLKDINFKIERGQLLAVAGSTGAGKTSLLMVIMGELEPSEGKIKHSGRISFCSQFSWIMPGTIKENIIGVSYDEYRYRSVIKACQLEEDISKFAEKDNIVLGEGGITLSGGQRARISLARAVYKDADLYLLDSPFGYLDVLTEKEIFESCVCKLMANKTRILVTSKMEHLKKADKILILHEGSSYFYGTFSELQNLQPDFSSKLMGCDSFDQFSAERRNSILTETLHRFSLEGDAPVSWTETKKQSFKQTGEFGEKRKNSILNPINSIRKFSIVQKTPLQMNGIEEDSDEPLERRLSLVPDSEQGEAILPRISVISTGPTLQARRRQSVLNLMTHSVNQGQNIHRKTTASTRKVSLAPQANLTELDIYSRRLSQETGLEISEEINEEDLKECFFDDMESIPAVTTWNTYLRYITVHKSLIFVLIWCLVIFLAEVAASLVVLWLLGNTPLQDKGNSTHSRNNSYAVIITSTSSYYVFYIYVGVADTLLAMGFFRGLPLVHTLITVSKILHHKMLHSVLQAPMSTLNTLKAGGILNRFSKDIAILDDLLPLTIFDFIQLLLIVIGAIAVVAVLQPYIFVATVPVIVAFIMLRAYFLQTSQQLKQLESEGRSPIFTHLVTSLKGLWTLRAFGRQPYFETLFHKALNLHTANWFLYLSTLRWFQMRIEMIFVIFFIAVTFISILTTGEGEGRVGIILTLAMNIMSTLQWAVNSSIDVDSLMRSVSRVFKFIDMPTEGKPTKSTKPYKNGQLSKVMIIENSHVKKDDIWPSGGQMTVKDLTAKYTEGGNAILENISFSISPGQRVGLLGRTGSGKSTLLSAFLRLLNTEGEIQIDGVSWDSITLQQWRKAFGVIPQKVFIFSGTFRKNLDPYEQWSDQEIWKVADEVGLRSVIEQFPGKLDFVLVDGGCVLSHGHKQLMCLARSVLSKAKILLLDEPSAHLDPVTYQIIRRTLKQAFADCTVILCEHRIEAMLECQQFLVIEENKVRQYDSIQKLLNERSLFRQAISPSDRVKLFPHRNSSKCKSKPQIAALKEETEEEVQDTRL
Structure (SMILES),effect on export or function of F508del (CFTR),"correction of the I1061T phenotype (protein stabilized for export to LE/LY, improved cholesterol homeostasis) (NPC1 [1])",ChoI (NPC1 [2]; NPC1 H510P),ChoI (NPC1 [2]; NPC1 P532L),cholesterol homeostasis (NPC1 [2]; NPC1 R518Q),"response to treatment (NPC1 [2]; NPC1 V950M, S954L, P1007A and T1036M (CLD5, late age of neurological onset cluster))",restoration of ChoI homeostasis (NPC1 [2]; fibroblasts lacking NPC1 and null cell-lines lacking NPC1),cholesterol homeostasis of NPC1 variants (NPC1 [2]; in all domains),"cholesterol storage state (NPC1 [2]; variants along the predicted cholesterol flow path (R1077Q, Y1088C, W1145R, Y634C, P691S, L1191F))",TrIdx (NPC1 [3]; NPC1 H510P),TrIdx (NPC1 [3]; NPC1 P532L),TrIdx (NPC1 [3]; NPC1 R518Q),TrIdx class after treatment (NPC1 [3]; majority of NPC1 variants with a TrIdx<0.2),"trafficking (NPC1 [3]; variants involved in the predicted path of cholesterol flow, TM region)"
CC(C)(C)c1cc(C(C)(C)C)c(NC(=O)c2c[nH]c3ccccc3c2=O)cc1O [Ivacaftor],no effect,,,,,,,,,,,,,
"O=C(CCCCCCC(=O)Nc1ccccc1)NO [SAHA, Vorinostat]",,correct the I1061T phenotype,lack of significant correction,improved,does not significantly improve,highly responsive,not observed,significantly restored,improved to level of WT or even better than WT,inability of SAHA to improve,improved,large improvement,at least a Class III TrIdx,not changed

# Source: US12584173B2, “Methods for disease treatment and drug discovery” (The Scripps Research Institute, priority 2018, dated 2026)
